Laboratory results: US20250040548A1, “Herbicidal compositions comprising saflufenacil” (BASF SF, priority 2023, published 2025)

Legend:
ELEIN [1] = assay: Post-emergence application in greenhouse trials; format: in vivo, Eleusine indica; conditions: A-1 3.12 g ai/ha, 21 DAT, growth stage 21, saflufenacil as commercial 342 g/l SC formulation
Description: (§1) In the examples below, using the method of S. R. Colby (1967) “Calculating synergistic and antagonistic responses of herbicide combinations”, Weeds 15, p. 22ff., the value E, which is expected if the activity of the individual active compounds is only additive, was calculated.
(§2) [formula] • where • X=percent activity using active herbicide A at an application rate a; • Y=percent activity using active saflufenacil at an application rate b; • E=expected activity (in %) by A+B at application rates a+b.
(§3) If the value found experimentally is higher than the value E calculated according to Colby, a synergistic effect is present.
(§4) The culture containers used were plastic pots containing loamy sand with approximately 3.0% of humus as substrate. The seeds of the test plants were sown separately for each species.
(§5) For the post-emergence treatment, the test plants were grown to a plant height of from 3 to 15 cm, depending on the plant habit, and only then treated with the active compounds which had been suspended or emulsified in water. To this end, the test plants were either sown directly, and grown in the same containers, or they were first grown separately as seedlings and transplanted into the test containers a few days prior to treatment. […]
(§6) The test period extended over 2 to 4 weeks. During this time, the plants were tended and their response to the individual treatments was evaluated. […]

AMATA = assay: Post-emergence application in greenhouse trials; format: in vivo, Amaranthus tamariscinus; conditions: 20 DAT, growth stage 14, 1% MSO
Description: as §1, §2, §3, §4
(§7) For the post-emergence treatment, the test plants were grown to a plant height of from 3 to 15 cm, depending on the plant habit, and only then treated with the active compounds which had been suspended or emulsified in water. To this end, the test plants were either sown directly, and grown in the same containers, or they were first grown separately as seedlings and transplanted into the test containers a few days prior to treatment.
(§8) Depending on the species, the plants were kept at 10-25° C. and 20-35° C., respectively.
(§9) The test period extended over 2 to 4 weeks. During this time, the plants were tended and their response to the individual treatments was evaluated.
(§10) Evaluation was carried out using a scale from 0 to 100. 100 means no emergence of the plants, or complete destruction of at least the above-ground parts, and 0 means no damage or normal course of growth. A good herbicidal activity is given at values of at least 70, and very good herbicidal activity is given at values of at least 85.
(§11) Unless indicated otherwise, herbicide A and saflufenacil were formulated (50 g/I) and applied with addition of 1% MSO (methylated seed oil) as adjuvant. In the greenhouse trials, the solvent used was water (200 I/ha).

ALOMY = assay: Post-emergence application in greenhouse trials; format: in vivo, Alopercurus myosuroides; conditions: A-1 3.12 g ai/ha, 7 DAT, growth stage 21, saflufenacil as commercial 342 g/l SC formulation
Description: as §1, §2, §3, §4, §5, §6

POAAN = assay: Post-emergence application in field trials (Examples 2 and 3); format: in vivo, Poa annua
Description: as §1, §2, §3
(§12) On field test sites, natural weed infestation or seeded weeds were treated post-emergence of the weeds.
(§13) For the post emergence treatment, the weedy plants were treated as indicated below. The herbicidal compositions were, together with the adjuvant(s) as indicated, suspended or emulsified in water (200 l/ha unless indicated otherwise) as distribution medium and sprayed with commercial flat fan nozzles.
(§14) In the following experiments, the herbicidal activity for the individual herbicidal compositions (solo and mixture applications) was assessed the indicated days after treatment (DAT). The assessments for the damage on undesired weeds caused by the composition was carried out using a scale from 0 to 100%, compared to the untreated control plants. Here, 0 means no damage and 100 means complete destruction of the plants.
as §13, with “I/ha” for “l/ha”

CYPES = assay: as above; format: in vivo, Cyperus esculentus; conditions: A-1 12.5 g ai/ha, 21 DAT, height 15-23 cm, 140 l/ha water, 1% MSO + 2.5% ammoniumsulfate
Description: as §1, §2, §3, §12, §13
as §14, with “Here, 0 means no damage and 100 means complete destruction of the plants.” left out

ERICA = assay: as above; format: in vivo, Erigeron canadensis; conditions: 21 DAT
Description: as §1, §2, §3, §12, §13, §14
as §13, with “I/ha” for “l/ha”

AVEST = assay: as above; format: in vivo, Avena stirilis; conditions: growth stage 12-22, A-1 solo 12.5 g ai/ha, 14 DAT, 1% v/ MSO
Description: as §1, §2, §3, §12, §13
as §14, with “Here, 0 means no damage and 100 means complete destruction of the plants.” left out

SETVI = assay: as above; format: in vivo, Setaria viridis
Description: as §1, §2, §3, §12, §13, §14
as §13, with “I/ha” for “l/ha”

ERISS = assay: as above; format: in vivo, Erigeron sp.; conditions: 14 DAT, height 30-50 cm, 0.5% v/v MSO
Description: as §1, §2, §3, §12, §13, §14
as §13, with “I/ha” for “l/ha”

KCHSC = assay: Post-emergence application in greenhouse trials; format: in vivo, Kochia scoparia; conditions: growth stage 33, 1% MSO
Description: as §1, §2, §3, §4, §7, §8, §9, §10, §11

ELEIN [2] = assay: Post-emergence application in field trials (Examples 2 and 3); format: in vivo, Eleusine indica
Description: as §1, §2, §3, §12, §13, §14
as §13, with “I/ha” for “l/ha”

EPHHL = assay: as above; format: in vivo, Euphorbia heterophylla; conditions: A-1 25 g ai/ha, 21 DAT, growth stage 12-16, height 5-15 cm, 0.5% MSO
Description: as §1, §2, §3, §12, §13
as §14, with “Here, 0 means no damage and 100 means complete destruction of the plants.” left out

COMBE = assay: as above; format: in vivo, Commelina benghalensis; conditions: A-1 50 g ai/ha, 21 DAT, growth stage 11-14, height 2-10 cm, 0.5% MSO
Description: as §1, §2, §3, §12, §13
as §14, with “Here, 0 means no damage and 100 means complete destruction of the plants.” left out

DIGSA = assay: as above; format: in vivo, Digitaria sanguinales; conditions: A-1 12.5 g ai/ha
Description: as §1, §2, §3, §12, §13, §14
as §13, with “I/ha” for “l/ha”

## CCOC(=O)COc1ccccc1Oc1nc(-n2c(=O)cc(C(F)(F)F)n(C)c2=O)c(F)cc1Cl [A-1, ethyl 2-[2-[[3-chloro-5-fluoro-6-[3-methyl-2,6-dioxo-4-(trifluoromethyl)pyrimidin-1-yl]-2-pyridyl]oxy]phenoxy]acetate]
ELEIN [1]
  % Herbicidal activity: 80%
AMATA; A-1 0.2 g ai/ha
  % Herbicidal activity: 75%
AMATA; A-1 0.3 g ai/ha
  % Herbicidal activity: 75%
ALOMY
  % Herbicidal activity: 70%
POAAN; A-1 12.5 g ai/ha, 21 DAT, growth stage 55-65, height 10-15 cm, field, 140 l/ha water, 1% MSO + 2.5% ammoniumsulfate
  % Herbicidal activity: 33%
POAAN; POAAN, height 2.5-4 cm, A-1 solo 12.5 g ai/ha, 7 DAT, 1% v/v MSO
  % Herbicidal activity: 83%
POAAN; POAAN, height 2.5-4 cm, A-1 solo 25 g ai/ha, 7 DAT, 1% v/v MSO
  % Herbicidal activity: 88%
CYPES
  % Herbicidal activity: 47%
ERICA; A-1 6.25 g ai/ha, height 12.5-25 cm, field, 140 l/ha water, 1% MSO + 2.5% ammoniumsulfate
  % Herbicidal activity: 7%
ERICA; A-1 12.5 g ai/ha, height 12.5-25 cm, field, 140 l/ha water, 1% MSO + 2.5% ammoniumsulfate
  % Herbicidal activity: 17%
ERICA; ERICA, height 5-10 cm, A-1 solo 25 g ai/ha, 1% v/v MSO and 1% AMS (ammonium sulfate)
  % Herbicidal activity: 60%
AVEST
  % Herbicidal activity: 95%
SETVI; A-1 12.5 g ai/ha, 19 DAT, growth stage 13-19, height 2.5-10 cm, field, 1% v/v MSO and 1% w/v ammoniumsulfate
  % Herbicidal activity: 87%
SETVI; A-1 25 g ai/ha, 19 DAT, growth stage 13-19, height 2.5-10 cm, field, 1% v/v MSO and 1% w/v ammoniumsulfate
  % Herbicidal activity: 96%
SETVI; SETVI, height 50-61 cm, A-1 solo 25 g ai/ha, 42 DAT, 1% v/v MSO and 2.5% AMSOL ®
  % Herbicidal activity: 57%
ERISS; A-1 25 g ai/ha
  % Herbicidal activity: 13%
ERISS; A-1 50 g ai/ha
  % Herbicidal activity: 18%
KCHSC; A-1 0.2 g ai/ha, 6 DAT
  % Herbicidal activity: 15%
KCHSC; A-1 0.2 g ai/ha, 20 DAT
  % Herbicidal activity: 15%
KCHSC; A-1 0.3 g ai/ha, 6 DAT
  % Herbicidal activity: 55%
KCHSC; A-1 0.4 g ai/ha, 6 DAT
  % Herbicidal activity: 55%
KCHSC; A-1 0.4 g ai/ha, 20 DAT
  % Herbicidal activity: 55%
KCHSC; A-1 0.9 g ai/ha, 6 DAT
  % Herbicidal activity: 90%
KCHSC; A-1 1 g ai/ha, 6 DAT
  % Herbicidal activity: 95%
ELEIN [2]; A-1 12.5 g ai/ha, 21 DAT, height 1-15 cm, 140 l/ha water, 1% MSO + 2.5% ammoniumsulfate
  % Herbicidal activity: 49%
ELEIN [2]; A-1 12.5 g ai/ha, 21 DAT, height 7-10 cm, 1% v/v MSO and 1% w/v ammoniumsulfate
  % Herbicidal activity: 18%
ELEIN [2]; A-1 12.5 g ai/ha, 21 DAT, height 15-20 cm, 1% v/v MSO and 1% w/v ammoniumsulfate
  % Herbicidal activity: 27%
ELEIN [2]; A-1 25 g ai/ha, 19 DAT, growth stage 24, 0.5% MSO
  % Herbicidal activity: 68%
ELEIN [2]; A-1 25 g ai/ha, 21 DAT, height 7-10 cm, 1% v/v MSO and 1% w/v ammoniumsulfate
  % Herbicidal activity: 78%
ELEIN [2]; A-1 25 g ai/ha, 21 DAT, height 15-20 cm, 1% v/v MSO and 1% w/v ammoniumsulfate
  % Herbicidal activity: 55%
ELEIN [2]; A-1 50 g ai/ha, 19 DAT, growth stage 24, 0.5% MSO
  % Herbicidal activity: 73%
EPHHL
  % Herbicidal activity: 97%
COMBE
  % Herbicidal activity: 94%
DIGSA; 19 DAT, growth stage 13-19, height 2.5-7.5 cm, 1% v/v MSO and 1% w/v ammoniumsulfate
  % Herbicidal activity: 87%
DIGSA; 21 DAT, height 3-12 cm, 140 l/ha water, 1% MSO + 2.5% ammoniumsulfate
  % Herbicidal activity: 50%
